Reference: patent US20230023092A1, “TREATMENT OF DEPRESSION AND OTHER VARIOUS DISORDERS WITH PSILOCYBIN” (COMPASS […], priority 2019, published 2023)

Test system: healthy subjects
Assay: Phase 1 study: adverse events (TEAEs, MedDRA coded)
Format: in vivo, human
Method: A Phase 1 randomized, double-blind, placebo-controlled study to evaluate the effect of psilocybin on cognitive and emotional processing as compared to placebo in healthy volunteers was conducted. The study investigated the short-term (Day 7) and long-term (Day 28) effects of moderate (10 mg) and high doses (25 mg) of psilocybin on key domains of cognition, such as episodic memory, attention, working and spatial memory, social cognition and elements of executive function, including cognitive flexibility.
Each subject was assigned 1 treatment bottle containing 5 capsules packaged in a double-blind fashion, depending on the randomized treatment arm, the bottle contained one of the following: • a. Psilocybin 10 mg: 2×5-mg oral psilocybin capsules plus 3×placebo capsules • b. Psilocybin 25 mg: 5×5-mg oral psilocybin capsules • c. Placebo: 5×placebo capsules
Each 5-mg oral psilocybin capsules comprised 5 mg crystalline psilocybin in the form or Polymorph A, 12.5 mg of SMCC 50, 79.5 mg of SMCC 90, 1 mg sodium starch glycolate, 1 mg colloidal silicon dioxide, and 1 mg sodium stearyl fumarate
Adverse events: Throughout the course of the study, all AEs were monitored and recorded. Each AE was classified according to the following criteria: • i. […] Moderate: The AE produces some impairment of functioning, but is not hazardous to the subject's health. • iii. Severe: The AE produces significant impairment of functioning or incapacitation and is a definite hazard to the subject's health.
Visit 3 (V3): Drug Administration (Day 0): The subject was asked to eat a light breakfast at least two hours prior to coming to the clinic for study drug administration. On Day 0 (V3), the subject underwent the SSTS, had vital signs obtained, medications reviewed, AEs recorded and eligibility reviewed prior to being randomized to study drug. The study drug was administered to up to six subjects simultaneously in individual beds separated by a curtain. The subject was invited to put on eyeshades and headphones, lie down and listen to calming music for the rest of the session (six hours). The subject was supported 1:1 with a chaperone and supervised by the study psychiatrist and lead therapist.
During administration of psilocybin, each subject received one-on-one support from a trained assisting therapist and each dosing session was supervised by a study psychiatrist and a lead therapist. The study drug was administered simultaneously to up to six participants as a single 5-capsule oral dose (10 mg psilocybin: 2×5-mg psilocybin capsules plus 3×placebo capsules; 25 mg psilocybin: 5×5-mg psilocybin capsules; placebo: 5×placebo capsules). Twenty-five dosing sessions were completed, with up to six participants dosed simultaneously per session. Each session lasted approximately 6 to 8 hours with subjects encouraged to relax and engage in introspection for the duration. After the acute effects of the study drug had subsided, subjects were discharged.

CN(C)CCc1c[nH]c2cccc(OP(=O)(O)O)c12 [Psilocybin, psilocybin]
Illusion, Events (25 mg oral): 26 | Illusion, N (%) (25 mg oral): 18 (60.0) | Illusion, worst severity Mild, Events (25 mg oral): 4 | Illusion, worst severity Mild, N (%) (25 mg oral): 3 (10.0) | Illusion, worst severity Moderate, Events (25 mg oral): 12 | Illusion, worst severity Moderate, N (%) (25 mg oral): 10 (33.3) | Illusion, worst severity Severe, Events (25 mg oral): 7 | Illusion, worst severity Severe, N (%) (25 mg oral): 5 (16.7) | Infections and infestations, Events (25 mg oral): 4 | Infections and infestations, N (%) (25 mg oral): 4 (13.3) | Infections and infestations, worst severity Mild, Events (25 mg oral): 4 | Infections and infestations, worst severity Mild, N (%) (25 mg oral): 4 (13.3) | Infections and infestations, worst severity Moderate, Events (25 mg oral): 0 | Infections and infestations, worst severity Moderate, N (%) (25 mg oral): 0 | Infections and infestations, worst severity Severe, Events (25 mg oral): 0 | Infections and infestations, worst severity Severe, N (%) (25 mg oral): 0 | Investigations, Events (25 mg oral): 1 | Investigations, N (%) (25 mg oral): 1 (3.3) | Investigations, worst severity Mild, Events (25 mg oral): 1 | Investigations, worst severity Mild, N (%) (25 mg oral): 1 (3.3) | Investigations, worst severity Moderate, Events (25 mg oral): 0 | Investigations, worst severity Moderate, N (%) (25 mg oral): 0 | Investigations, worst severity Severe, Events (25 mg oral): 0 | Investigations, worst severity Severe, N (%) (25 mg oral): 0 | Memory impairment, Events (25 mg oral): 0 | Memory impairment, N (%) (25 mg oral): 0 | Mental fatigue, Events (25 mg oral): 3 | Mental fatigue, N (%) (25 mg oral): 3 (10.0) | Mood altered, Events (25 mg oral): 25 | Mood altered, N (%) (25 mg oral): 15 (50.0) | Mood altered, worst severity Mild, Events (25 mg oral): 3 | Mood altered, worst severity Mild, N (%) (25 mg oral): 2 (6.7) | Mood altered, worst severity Moderate, Events (25 mg oral): 7 | Mood altered, worst severity Moderate, N (%) (25 mg oral): 6 (20.0) | Mood altered, worst severity Severe, Events (25 mg oral): 9 | Mood altered, worst severity Severe, N (%) (25 mg oral): 7 (23.3) | Musculoskeletal and connective tissue disorders, Events (25 mg oral): 4 | Musculoskeletal and connective tissue disorders, N (%) (25 mg oral): 3 (10.0) | Musculoskeletal and connective tissue disorders, worst severity Mild, Events (25 mg oral): 3 | Musculoskeletal and connective tissue disorders, worst severity Mild, N (%) (25 mg oral): 2 (6.7) | Musculoskeletal and connective tissue disorders, worst severity Moderate, Events (25 mg oral): 1 | Musculoskeletal and connective tissue disorders, worst severity Moderate, N (%) (25 mg oral): 1 (3.3) | Musculoskeletal and connective tissue disorders, worst severity Severe, Events (25 mg oral): 0 | Musculoskeletal and connective tissue disorders, worst severity Severe, N (%) (25 mg oral): 0 | Nausea, Events (25 mg oral): 3 | Nausea, N (%) (25 mg oral): 3 (10.0) | Nervous system disorders, Events (25 mg oral): 43 | Nervous system disorders, N (%) (25 mg oral): 25 (83.3) | Nervous system disorders, worst severity Mild, Events (25 mg oral): 24 | Nervous system disorders, worst severity Mild, N (%) (25 mg oral): 16 (53.3) | Nervous system disorders, worst severity Moderate, Events (25 mg oral): 10 | Nervous system disorders, worst severity Moderate, N (%) (25 mg oral): 8 (26.7) | Nervous system disorders, worst severity Severe, Events (25 mg oral): 1 | Nervous system disorders, worst severity Severe, N (%) (25 mg oral): 1 (3.3) | Paraesthesia, Events (25 mg oral): 4 | Paraesthesia, N (%) (25 mg oral): 4 (13.3) | Paraesthesia, worst severity Mild, Events (25 mg oral): 3 | Paraesthesia, worst severity Mild, N (%) (25 mg oral): 3 (10.0) | Paraesthesia, worst severity Moderate, Events (25 mg oral): 1 | Paraesthesia, worst severity Moderate, N (%) (25 mg oral): 1 (3.3) | Paraesthesia, worst severity Severe, Events (25 mg oral): 0 | Paraesthesia, worst severity Severe, N (%) (25 mg oral): 0 | Psychiatric disorders, Events (25 mg oral): 135 | Psychiatric disorders, N (%) (25 mg oral): 29 (96.7) | Psychiatric disorders, worst severity Mild, Events (25 mg oral): 5 | Psychiatric disorders, worst severity Mild, N (%) (25 mg oral): 4 (13.3) | Psychiatric disorders, worst severity Moderate, Events (25 mg oral): 45 | Psychiatric disorders, worst severity Moderate, N (%) (25 mg oral): 16 (53.3) | Psychiatric disorders, worst severity Severe, Events (25 mg oral): 27 | Psychiatric disorders, worst severity Severe, N (%) (25 mg oral): 9 (30.0) | Psychomotor skills impaired, Events (25 mg oral): 0 | Psychomotor skills impaired, N (%) (25 mg oral): 0 | Respiratory, thoracic and mediastinal disorders, Events (25 mg oral): 3 | Respiratory, thoracic and mediastinal disorders, N (%) (25 mg oral): 3 (10.0) | Selected TEAE: Nervous system disorders, Events (25 mg oral): 0 | Selected TEAE: Nervous system disorders, N (%) (25 mg oral): 0 | Selected TEAE: Psychiatric disorders, Events (25 mg oral): 106 | Selected TEAE: Psychiatric disorders, N (%) (25 mg oral): 27 (90.0) | Somatic hallucination, Events (25 mg oral): 6 | Somatic hallucination, N (%) (25 mg oral): 5 (16.7) | Somatic hallucination, worst severity Mild, Events (25 mg oral): 2 | Somatic hallucination, worst severity Mild, N (%) (25 mg oral): 2 (6.7) | Somatic hallucination, worst severity Moderate, Events (25 mg oral): 2 | Somatic hallucination, worst severity Moderate, N (%) (25 mg oral): 2 (6.7) | Somatic hallucination, worst severity Severe, Events (25 mg oral): 2 | Somatic hallucination, worst severity Severe, N (%) (25 mg oral): 1 (3.3) | Substance-induced psychotic disorder, Events (25 mg oral): 1 | Substance-induced psychotic disorder, N (%) (25 mg oral): 1 (3.3) | Tension headache, Events (25 mg oral): 6 | Tension headache, N (%) (25 mg oral): 6 (20.0) | Tension headache, worst severity Mild, Events (25 mg oral): 4 | Tension headache, worst severity Mild, N (%) (25 mg oral): 4 (13.3) | Tension headache, worst severity Moderate, Events (25 mg oral): 2 | Tension headache, worst severity Moderate, N (%) (25 mg oral): 2 (6.7) | Tension headache, worst severity Severe, Events (25 mg oral): 0 | Tension headache, worst severity Severe, N (%) (25 mg oral): 0 | Time perception altered, Events (25 mg oral): 6 | Time perception altered, N (%) (25 mg oral): 6 (20.0) | Time perception altered, worst severity Mild, Events (25 mg oral): 2 | Time perception altered, worst severity Mild, N (%) (25 mg oral): 2 (6.7) | Time perception altered, worst severity Moderate, Events (25 mg oral): 4 | Time perception altered, worst severity Moderate, N (%) (25 mg oral): 4 (13.3) | Time perception altered, worst severity Severe, Events (25 mg oral): 0 | Time perception altered, worst severity Severe, N (%) (25 mg oral): 0 | Adverse events reported by % of subjects (25 mg oral, 12-week study): 96.7% | Reported 'Mood altered' events: Being less judgmental (number) (25 mg psilocybin (n = 30)): 0 | Reported 'Mood altered' events: Calm (number) (25 mg psilocybin (n = 30)): 0 | Reported 'Mood altered' events: Clarity of thought (number) (25 mg psilocybin (n = 30)): 1 | Reported 'Mood altered' events: Contemplative state (number) (25 mg psilocybin (n = 30)): 1 | Reported 'Mood altered' events: Feeling more moody/sensitive (number) (25 mg psilocybin (n = 30)): 0 | Reported 'Mood altered' events: Feeling of adrenaline release (number) (25 mg psilocybin (n = 30)): 0 | Reported 'Mood altered' events: Feeling rested (number) (25 mg psilocybin (n = 30)): 0 | Reported 'Mood altered' events: Increased compassion (number) (25 mg psilocybin (n = 30)): 1 | Reported 'Mood altered' events: Increased creativity (number) (25 mg psilocybin (n = 30)): 1 | Reported 'Mood altered' events: Increased empathy (number) (25 mg psilocybin (n = 30)): 2 | Reported 'Mood altered' events: Increased sense of connectedness (number) (25 mg psilocybin (n = 30)): 1 | Reported 'Mood altered' events: Increased wit (number) (25 mg psilocybin (n = 30)): 0 | Reported 'Mood altered' events: Introspection (number) (25 mg psilocybin (n = 30)): 8 | Reported 'Mood altered' events: Laughter (number) (25 mg psilocybin (n = 30)): 1 | Reported 'Mood altered' events: More socially upbeat (number) (25 mg psilocybin (n = 30)): 1 | Reported 'Mood altered' events: Negative mood (number) (25 mg psilocybin (n = 30)): 0 | Reported 'Mood altered' events: Reflections (number) (25 mg psilocybin (n = 30)): 4 | Reported 'Mood altered' events: Saw themselves from a new perspective (number) (25 mg psilocybin (n = 30)): 1 | Reported 'Mood altered' events: Sense of oneness (number) (25 mg psilocybin (n = 30)): 2 | Reported 'Mood altered' events: Sense of openness (number) (25 mg psilocybin (n = 30)): 0 | Reported 'Mood altered' events: Unusual appreciation of music (number) (25 mg psilocybin (n = 30)): 0 | Adverse events that appeared and resolved on day 0 (day of dosing) (all adverse events, all arms): 67% | 'mood altered' AEs positive or neutral in nature (all arms): 96% | Median duration of adverse events (all treatment arms, 12-week trial): one | Incidence of Illusion, Hallucination (visual), Mood altered, Headache, Fatigue and Euphoric mood compared to placebo (both 10 and 25 mg): higher | Adverse events likely to be psychedelic in nature resolved on the day of onset or within a day of onset (human, in vivo, oral, 12 weeks): 92%
